# Laboratory results as given in ChEMBL document CHEMBL1143946, “Docking analyses on human muscarinic receptors: unveiling the subtypes peculiarities in agonists binding” (Bioorg Med Chem, 2008).
# Columns and labels:
# Assay in all cases: biochemical
# [1] = target: T1, Muscarinic acetylcholine receptor M5 (Homo sapiens, UniProt P08912)
# T1 sequence (P08912 whole entry): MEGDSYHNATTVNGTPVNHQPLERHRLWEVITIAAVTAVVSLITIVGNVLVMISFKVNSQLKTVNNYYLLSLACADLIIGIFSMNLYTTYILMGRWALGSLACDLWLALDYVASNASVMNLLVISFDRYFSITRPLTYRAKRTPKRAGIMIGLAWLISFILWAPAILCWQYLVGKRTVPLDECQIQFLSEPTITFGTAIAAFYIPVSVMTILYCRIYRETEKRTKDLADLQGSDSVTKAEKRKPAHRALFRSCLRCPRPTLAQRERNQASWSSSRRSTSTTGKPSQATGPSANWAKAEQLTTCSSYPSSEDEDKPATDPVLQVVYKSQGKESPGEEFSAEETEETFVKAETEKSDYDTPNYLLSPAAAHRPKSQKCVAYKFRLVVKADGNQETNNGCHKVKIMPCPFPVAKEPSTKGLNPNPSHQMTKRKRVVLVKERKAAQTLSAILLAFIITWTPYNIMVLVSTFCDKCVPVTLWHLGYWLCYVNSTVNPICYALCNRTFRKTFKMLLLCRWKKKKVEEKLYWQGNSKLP
# Description: Binding affinity to human cloned muscarinic M5 receptor expressed in CHO cells
# [2] = target: T2, Muscarinic acetylcholine receptor M2 (Homo sapiens, UniProt P08172)
# T2 sequence (P08172 whole entry): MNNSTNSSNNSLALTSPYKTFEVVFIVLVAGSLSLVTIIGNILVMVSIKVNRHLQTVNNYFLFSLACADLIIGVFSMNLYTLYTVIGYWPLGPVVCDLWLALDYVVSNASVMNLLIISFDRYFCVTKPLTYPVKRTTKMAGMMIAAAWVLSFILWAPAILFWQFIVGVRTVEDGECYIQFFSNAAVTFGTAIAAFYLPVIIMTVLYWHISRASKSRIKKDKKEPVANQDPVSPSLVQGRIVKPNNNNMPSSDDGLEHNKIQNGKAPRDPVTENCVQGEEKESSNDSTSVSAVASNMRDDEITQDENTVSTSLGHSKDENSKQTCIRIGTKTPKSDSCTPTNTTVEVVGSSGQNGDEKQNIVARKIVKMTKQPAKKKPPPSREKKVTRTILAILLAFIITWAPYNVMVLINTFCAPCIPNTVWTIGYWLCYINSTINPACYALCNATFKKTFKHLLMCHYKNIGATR
# [3] = target: T3, Muscarinic acetylcholine receptor M1 (Homo sapiens, UniProt P11229)
# T3 sequence (P11229 whole entry): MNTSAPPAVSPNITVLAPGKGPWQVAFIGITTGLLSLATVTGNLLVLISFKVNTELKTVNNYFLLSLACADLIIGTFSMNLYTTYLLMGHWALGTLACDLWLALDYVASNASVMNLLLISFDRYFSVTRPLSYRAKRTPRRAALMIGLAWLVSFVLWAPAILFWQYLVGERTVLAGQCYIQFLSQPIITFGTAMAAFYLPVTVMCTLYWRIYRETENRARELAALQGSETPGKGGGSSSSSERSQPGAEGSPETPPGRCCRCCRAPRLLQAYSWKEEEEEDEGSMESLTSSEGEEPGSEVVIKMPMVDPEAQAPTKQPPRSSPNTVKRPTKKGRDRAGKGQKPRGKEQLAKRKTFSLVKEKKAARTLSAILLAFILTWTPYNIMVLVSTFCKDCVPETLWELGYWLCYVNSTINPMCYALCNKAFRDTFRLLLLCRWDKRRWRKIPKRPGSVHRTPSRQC
Compound,Ki [1],Ki [2],Ki [3]
C[C@H]1OC[C@@H](C[N+](C)(C)C)O1,21.9 µM,1.2 µM,11 µM
Cc1nccn1CC#CCOc1ccon1,0.00617 µM,0.00363 µM,0.0912 µM
C[C@@H]1O[C@H]([C@H]2CCC[N+]2(C)C)CS1,24.5 µM,5.25 µM,19.1 µM
C[C@@H]1O[C@H]([C@@H]2CCC[N+]2(C)C)CS1,23.4 µM,3.55 µM,14.1 µM
C[C@H]1O[C@@H]([C@H]2CCC[N+]2(C)C)CS1,10.7 µM,1.41 µM,5.89 µM
C[C@H]1OC[C@@H]([C@H]2CCC[N+]2(C)C)O1,52.5 µM,5.01 µM,52.5 µM
C[C@H]1O[C@@H]([C@@H]2CCC[N+]2(C)C)CS1,10.2 µM,0.676 µM,8.32 µM
C[C@H]1COC[C@@H](C[N+](C)(C)C)O1,3.72 µM,37.2 µM,–
CC(=O)OC1CC2CCCC1N2C (configuration not stated),–,2.75 µM,282 µM
C[C@@H]1O[C@H](C[N+](C)(C)C)CS1,13.2 µM,2.09 µM,11 µM
C[C@H]1OC[C@@H]([C@@H]2CCC[N+]2(C)C)O1,22.9 µM,1.7 µM,21.4 µM
C[C@H]1O[C@@H]([C@@H]2CCC[N+]2(C)C)C[S+]1[O-] (some centres not stated),–,77.6 µM,–
CC(=O)OC1CC2CCCC1N2 (configuration not stated),–,0.00263 µM,21.4 µM
Cc1nccn1CC#CCN1CCCC1=O,0.0513 µM,0.102 µM,0.12 µM
C[C@@H]1O[C@H]([C@@H]2CCC[N+]2(C)C)C[S+]1[O-] (stereo in doubt; 9),–,9.33 µM,–
C[C@@H]1O[C@H]([C@@H]2CCC[N+]2(C)C)C[S+]1[O-] (stereo in doubt; 11),33.9 µM,15.5 µM,93.3 µM
C[C@@H]1O[C@H]([C@@H]2CCC[N+]2(C)C)C[S+]1[O-] (stereo in doubt; 12),57.5 µM,81.3 µM,–
CO/N=C/C1=CCCN(C)C1 [MILAMELINE],3.16 µM,1 µM,5.62 µM
C[N+](C)(C)CC#CCN1CCCC1=O [OXOTREMORINE METHIODIDE],–,0.107 µM,20.4 µM
O=C1CCCN1CC#CCN1CCCC1 [OXOTREMORINE],–,0.324 µM,0.00112 µM
CO/N=C(\C#N)[C@H]1CN2CCC1CC2 [SABCOMELINE],–,0.204 µM,0.229 µM
